Drawing on BindingDB's records for patent US12410160 (Gilead Sciences, 2025), this text covers IC50 for 50 molecules.

Assay [1] has as its target T1, Ketohexokinase (Human, UniProt P50053).
T1 sequence (P50053 whole entry): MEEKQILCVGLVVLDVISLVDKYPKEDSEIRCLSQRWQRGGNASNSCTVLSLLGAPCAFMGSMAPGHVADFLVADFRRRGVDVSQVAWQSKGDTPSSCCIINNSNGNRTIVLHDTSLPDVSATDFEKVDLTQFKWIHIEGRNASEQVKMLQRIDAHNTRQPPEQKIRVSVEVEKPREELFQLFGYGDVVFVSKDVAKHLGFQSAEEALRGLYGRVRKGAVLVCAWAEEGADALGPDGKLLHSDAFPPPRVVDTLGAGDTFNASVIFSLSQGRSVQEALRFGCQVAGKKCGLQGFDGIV
The assay can be described thus: KHK Biochemical Assay. Here is the method: (§1) Compounds were tested for KHK enzyme inhibition in a high-throughput 384-well assay format using the ADP-Glo assay (Promega) in buffer consisting of 50 mM Hepes (pH 7.4), 140 mM KCl, 5 mM MgCl2 and 0.01% Triton-X. 0.2 nM. […] Compounds were serially diluted (1:3) in DMSO. […] The plates were incubated at room temperature for 4 hours before adding ADP-Glo reagent to quench the enzyme reaction, followed by incubation at room temperature for 1 hour. The ADP-Glo detection reagent was then added to the plates and luminescence was measured on the Envision plate reader after 1 hour.

Assay [2] addresses T2, Isoform A of Ketohexokinase (Peripheral) (Human, UniProt P50053).
T2 sequence (P50053 whole entry): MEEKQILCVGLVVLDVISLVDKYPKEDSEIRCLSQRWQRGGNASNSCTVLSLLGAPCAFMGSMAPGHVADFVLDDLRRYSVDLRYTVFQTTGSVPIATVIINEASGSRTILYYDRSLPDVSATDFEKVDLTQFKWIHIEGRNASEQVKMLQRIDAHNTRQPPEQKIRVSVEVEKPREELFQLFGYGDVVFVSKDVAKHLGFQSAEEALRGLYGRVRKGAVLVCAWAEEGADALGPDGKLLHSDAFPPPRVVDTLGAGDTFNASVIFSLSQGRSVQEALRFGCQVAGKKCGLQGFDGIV
The assay can be described thus: KHK Biochemical Assay. Here is the method: as §1

Broadly, the IC50 is the concentration needed to halve the response being measured. Low readings indicate higher potency, high ones lower potency. In turn, `C[C@H]1[C@H](CO)CN1c1nc2c(c(-c3ccc(C(N)=O)cc3)n1)CCC2` (racemic) [US12410160, Example 267] had an IC50 in assay [1] of more than 5 µM. As to `C[C@H]1[C@H](F)CN1c1nc2c(c(-c3ccc4c(c3)C(=O)N(C)C4)n1)CCC2` [US12410160, Example 203], the concentration for half-maximal inhibition (IC50) in assay [1] came to 0.0298 µM; in assay [2] it was 0.0665 µM. The like results for `C[C@H]1CCN1c1nc2c(c(-c3ccc4c(c3)C(=O)N(C)C4)n1)CCC2` [US12410160, Example 206] were, in that order, 0.016 µM and 0.0244 µM. The like results for `C[C@H]1[C@H](O)CN1c1nc2c(c(-c3cccc(S(N)(=O)=O)c3)n1)CCC2` [US12410160, Example 209] were, in that order, 0.0553 µM and 0.0354 µM. The like results for `C[C@H]1CCN1c1nc2c(c(-c3cccc(S(N)(=O)=O)n3)n1)CCC2` [US12410160, Example 223] were, in that order, 0.0269 µM and 0.0337 µM. For the molecule `C[C@H]1CCN1c1nc2c(c(-c3ccnc(S(N)(=O)=O)c3)n1)CCC2` [US12410160, Example 224], the IC50 in assay [1] was 0.114 µM; in assay [2] it was 0.155 µM. The like results for `C[C@H]1CCN1c1nc2c(c(-c3cccc(C4(N)CC4)c3)n1)CCC2` [US12410160, Example 225] were, in that order, 0.343 µM and 0.294 µM. On to `C[C@H]1[C@H](O)CN1c1nc(-c2ccc3c(c2)C(=O)N(C)C3)c2c(n1)C(F)(F)CC2` [US12410160, Example 236], for which, in assay [1], 0.0054 µM corresponded to half-maximal inhibition (IC50). Regarding `C[C@H]1CCN1c1nc(-c2cccc(C(N)=O)c2)c2c(n1)C1CC1C2` (some centres undefined) [US12410160, Example 272], the figures for the half-inhibitory concentration (IC50) in assay [1] and in assay [2] were 0.319 µM and 0.267 µM, respectively. Molecule `C[C@H]1CCN1c1nc2c(c(-c3ccnc(F)c3)n1)CCC2` [US12410160, Example 281] showed a half-inhibitory concentration (IC50) in assay [2] of 0.34 µM. On to `C[C@H]1CCN1c1nc2c(c(-c3ccc4c(c3)CCNC4=O)n1)CCC2` [US12410160, Example 283], for which the results for the IC50 in assay [1] and in assay [2] were 0.0158 µM and 0.0286 µM, respectively.

For the molecule `C[C@H]1[C@H](F)CN1c1nc2c(c(-c3cccc(S(N)(=O)=O)c3)n1)CCOC2` [US12410160, Example 287], the figures for the concentration for half-maximal inhibition (IC50) in assay [1] and in assay [2] were 1.27 µM and 0.696 µM, respectively. As for `C[C@H]1CCN1c1nc2c(c(-c3ccc(C4(NS(C)(=O)=O)CC4)cc3)n1)CCC2` [US12410160, Example 306], inhibition in assay [2] was half-maximal at 0.279 µM (IC50).

The molecule `CC1CCCc2nc(N3CC[C@@H]3C)nc(-c3ccccc3)c21` (some centres undefined) [US12410160, Example 340] displayed an IC50 in assay [2] of more than 50 µM. Take `C[C@H]1CCN1c1nc2c(c(-c3cncn3C)n1)CCC2` [US12410160, Example 341]: the IC50 in assay [1] was determined as 0.111 µM; in assay [2] it was 0.133 µM. The like results for `C[C@H]1[C@H](F)CN1c1nc2c(c(-c3cccc(CN)c3)n1)CCC2` [US12410160, Example 352] were, in that order, 0.0298 µM and 0.0356 µM. The like results for `CCOC(=O)NCc1ccc(-c2nc(N3CC[C@@H]3C)nc3c2CCC3)cc1` [US12410160, Example 358] were, in that order, 0.293 µM and 0.435 µM. Regarding `C[C@H]1CCN1c1nc2c(c(-c3ccc(CNS(C)(=O)=O)cc3)n1)CCC2` [US12410160, Example 361], the concentration for half-maximal inhibition (IC50) came to 0.0303 µM in assay [1] and 0.0684 µM in assay [2]. The like results for `C[C@H]1[C@H](O)CN1c1nc2c(c(-c3ccc(C(C)(C)O)cc3)n1)CCC2` [US12410160, Example 371] were, in that order, 0.187 µM and 0.442 µM. The like results for `C[C@H]1[C@H](O)CN1c1nc2c(c(-c3ccc4c(N)nccc4c3)n1)CCC2` [US12410160, Example 385] were, in that order, 0.0018 µM and 0.0042 µM. The like results for `C[C@H]1CCN1c1nc2c(c(-c3nc4ccccc4[nH]3)n1)CCC2` [US12410160, Example 389] were, in that order, 0.382 µM and 0.296 µM. Take `C[C@H]1CCN1c1nc(-c2ccc(C(N)=O)cc2)c2cn[nH]c2n1` [US12410160, Example 401]: half-maximal inhibition in assay [1] (IC50) required 4.63 µM.

On to `C[C@H]1[C@H](O)CN1c1nc(-c2ccc(OC(F)F)c(S(C)(=N)=O)c2)c2c(n1)C(F)(F)CC2` (some centres undefined) [US12410160, Example 532], for which the IC50 in assay [1] was 0.0028 µM. The same measure, in the same setting: under `C[C@H]1[C@H](O)CN1c1nc(-c2ccc3c(c2)CCC32COCCC(=O)N2)c2c(n1)C(F)(F)CC2` (some centres undefined) [US12410160, Example 552] stands 0.0392 µM. Molecule `NC1(c2ccc(-c3nc(N4CCC4C4CC(F)(F)C4)nc4c3CCC4(F)F)cc2)COC1` (centres undefined) [US12410160, Example 573] displayed a half-inhibitory concentration (IC50) in assay [2] of more than 0.1 µM. For the molecule `C[C@H]1[C@H](O)CN1c1nc(-c2ccc3c(c2)COC[C@@H]3NS(=O)(=O)CF)c2c(n1)C(F)(F)CC2` [US12410160, Example 580], the IC50 in assay [1] is 0.0037 µM; in assay [2] it was 0.013 µM. The like results for `Cc1cc(-c2nc(N3CC[C@@H]3C(F)(F)F)nc3c2CCC3(F)F)ccc1C1(N)COC1` [US12410160, Example 586] were, in that order, 0.0007 µM and 0.0013 µM. The like results for `FC1(F)CCc2c(-c3ccc4c(c3)OC[C@@H]4NC3COC3)nc(N3CC[C@@H]3C(F)(F)F)nc21` [US12410160, Example 588] were, in that order, 0.0037 µM and 0.0093 µM. Molecule `C[C@H]1[C@H](O)CN1c1nc(-c2ccc3c(c2)OC(C(F)F)CNC3=O)c2c(n1)C(F)(F)CC2` (some centres undefined) [US12410160, Example 597] yielded an IC50 in assay [1] of 0.0056 µM. The same measure, in the same setting: next, `C[C@H]1CCN1c1nc2c(c(-c3ccc4c(c3)CN(S(=O)(=O)CC#N)CC4)n1)CCC2` [US12410160, Example 604]: 0.239 µM; `C[C@H]1CCN1c1nc2c(c(-c3cccc(C4CCS(=O)(=O)N4)c3)n1)CCC2` (some centres undefined) [US12410160, Example 606]: 0.0153 µM; `C[C@H]1[C@H](O)CN1c1nc(-c2ccc3c(c2)CNCC3)c2c(n1)C(F)(F)CC2` [US12410160, Example 612]: 0.0326 µM. Still for that read-out and setting: next, `C[C@H]1[C@H](O)CN1c1nc(-c2ccc3c(c2)C(NS(C)(=O)=O)CO3)c2c(n1)C(F)(F)CC2` (some centres undefined) [US12410160, Example 613]: 0.0043 µM; `C[C@H]1[C@H](O)CN1c1nc(-c2cccc(-n3cnnc3)c2)c2c(n1)C(F)(F)CC2` [US12410160, Example 619]: 0.0143 µM; `C[C@H]1[C@H](O)CN1c1nc(-c2ccc3c(c2)C(NS(C)(=O)=O)CC3)c2c(n1)C(F)(F)CC2` (some centres undefined) [US12410160, Example 621]: 0.0013 µM.

Regarding `CCS(=O)(=O)N[C@H]1COc2cc(-c3nc(N4C[C@@H](O)[C@@H]4C)nc4c3CCC4(F)F)ccc21` [US12410160, Example 624], the midpoint of inhibition in assay [1], the IC50, lay at 0.0073 µM. Same read-out and setting: next, `C[C@H]1CCN1c1nc2c(c(-c3cn(C4CC4)nn3)n1)CCC2` [US12410160, Example 644]: 0.22 µM. Same read-out and setting: next, `C[C@H]1CCN1c1nc2c(c(-c3cn(CCO)nn3)n1)CCC2` [US12410160, Example 645]: 0.158 µM. For the molecule `C[C@H]1[C@H](O)CN1c1nc(-c2cn(C3CNC3)nn2)c2c(n1)C(F)(F)CC2` [US12410160, Example 647], the 50% inhibitory concentration (IC50) in assay [1] amounted to 0.0155 µM.

The molecule `C[C@H]1CCN1c1nc(-c2ccc([C@H](N)C(F)F)cc2)c2c(n1)C(F)(F)CC2` [US12410160, Example 650] yielded an IC50 in assay [1] of 0.0066 µM. Still for that read-out and setting: next, `C[C@H]1CCN1c1nc(-c2cn(C3CNC3)nn2)c2c(n1)C(F)(F)CC2` [US12410160, Example 653]: 0.0082 µM; `C[C@H]1CCN1c1nc(-c2cccc(-n3ccnn3)c2)c2c(n1)C(F)(F)CC2` [US12410160, Example 654]: 0.0164 µM.

For the molecule `C[C@H]1CCN1c1nc(-c2ccc(-n3ccnn3)cc2)c2c(n1)C(F)(F)CC2` [US12410160, Example 655], the IC50 in assay [1] was determined as 0.0251 µM. Same read-out and setting: next, `N#C[C@H]1CCN1c1nc(-c2ccc([C@@H](N)C(F)F)cc2)c2c(n1)C(F)(F)CC2` [US12410160, Example 660]: 0.0057 µM; `C[C@H]1[C@H](O)CN1c1nc(-c2ccc3c(c2)CCS3(=N)=O)c2c(n1)C(F)(F)CC2` (some centres undefined) [US12410160, Example 664]: 0.0173 µM; `C[C@H]1[C@H](O)CN1c1nc(-c2ccc3c(c2)S(=O)(=O)CC3NS(C)(=O)=O)c2c(n1)C(F)(F)CC2` (some centres undefined) [US12410160, Example 665]: 0.0009 µM.

`C[C@H]1[C@H](O)CN1c1nc(-c2cccc(N=S3(=O)CCOCC3)c2)c2c(n1)C(F)(F)CC2` [US12410160, Example 673] returned a 50% inhibitory concentration (IC50) in assay [1] of 0.0092 µM. With `C[C@H]1CCN1c1nc(-c2ccc(C#N)c(S(C)(=N)=O)c2)c2c(n1)C(F)(F)CC2` (some centres undefined) [US12410160, Example 798], the IC50 in assay [1] worked out at 0.0519 µM. `C[C@H]1[C@H](O)CN1c1nc(-c2ccc3c(c2)S(C)(=O)=NC3)c2c(n1)C(F)(F)CC2` (some centres undefined) [US12410160, Example 805] gave a concentration for half-maximal inhibition (IC50) in assay [1] of 0.018 µM. `COC(=O)N[C@@H]1COc2cc(-c3nc(N4C[C@@H](O)[C@@H]4C)nc4c3CCC4(F)F)ccc21` [US12410160, Example 815] showed a half-maximal inhibitory concentration (IC50) in assay [1] of 0.0092 µM.
